In brackets after ≈: the same amount, converted by molar mass.
Tests used:
KPC-2^V240G [1] = target: T1, KPC-2^V240G (Klebsiella pneumoniae, UniProt Q9F663, V239G); assay: Inhibition kinetics (CENTA hydrolysis, jump dilution), KPC-2 V240G; format: biochemical
Protocol: (§1) Measurements to determine kinetic parameters for hydrolysis, and kinetic parameters for inhibition were performed at ambient temperature in PBS (pH 7.4) containing 0.1 mg/mL bovine serum albumin, using a PowerWaveXS plate reader (BioTek).
(§2) Second-order rate constants (k2/K) denoting the inactivation efficiency of BLIs were determined by continuously measuring CENTA (100 µM) hydrolysis ([28]) in the presence of various concentrations of BLI. Progress curves were fit to equation 3 using GraphPad Prism, where Ai and A0 are the measured and basal absorbance, vi and vs are initial and final velocity, and t is time in seconds. k2/K was derived with equation 4. Koff was determined by the jump dilution method ([24]). Kd was estimated from the ratio between koff and k2/K.
(§3) (3) Ai=A0+vst(vi-vs)[1-e^-(kobs)t/kobs]
(§4) (4) kobs=k-2+(k2/KI)[I]/1+[S]/KM

KPC-3^V240G [2] = target: T2, KPC-3^V240G (Klebsiella pneumoniae, UniProt Q9F663, H272Y/V239G); assay: Inhibition kinetics (CENTA hydrolysis, jump dilution), KPC-3 V240G; format: biochemical
Protocol: as §1, §2, §3, §4

KPC-2 WT [3] = target: T3, KPC-2 WT (Klebsiella pneumoniae, UniProt Q9F663); format: biochemical
Protocol: as §1, §2, §3, §4

KPC-2^D179Y/T243M [4] = target: T4, KPC-2^D179Y/T243M (Klebsiella pneumoniae, UniProt Q9F663, D178Y/T242M); assay: Inhibition kinetics (CENTA hydrolysis, jump dilution), KPC-2 D179Y/T243M; format: biochemical
Protocol: as §1, §2, §3, §4

KPC-2^D179Y [5] = target: T5, KPC-2^D179Y (Klebsiella pneumoniae, UniProt Q9F663, D178Y); assay: Inhibition kinetics (CENTA hydrolysis, jump dilution), KPC-2 D179Y; format: biochemical
Protocol: as §1, §2, §3, §4

KPC-3^D179Y/T243M [6] = target: T6, KPC-3^D179Y/T243M (Klebsiella pneumoniae, UniProt Q9F663, D178Y/H272Y/T242M); assay: Inhibition kinetics (CENTA hydrolysis, jump dilution), KPC-3 D179Y/T243M; format: biochemical
Protocol: as §1, §2, §3, §4

KPC-3^D179Y [7] = target: T7, KPC-3^D179Y (Klebsiella pneumoniae, UniProt Q9F663, D178Y/H272Y); assay: Inhibition kinetics (CENTA hydrolysis, jump dilution), KPC-3 D179Y; format: biochemical
Protocol: as §1, §2, §3, §4

KPC-3 WT [8] = target: T8, KPC-3 WT (Klebsiella pneumoniae, UniProt Q9F663, H272Y); assay: Inhibition kinetics (CENTA hydrolysis, jump dilution), KPC-3 wt; format: biochemical
Protocol: as §1, §2, §3, §4

[9] = test system: KPC-3^D179Y and KPC-3^D179Y/T243M; assay: Inhibition kinetics, summary for KPC-3 D179Y variants; format: biochemical, Klebsiella pneumoniae; details: range over TAN, LED, AVI and both KPC-3 D179Y variants
Protocol: as §1, §2, §3, §4

[10] = test system: engineered E. coli strain expressing KPC-3^V240G; assay: microbe, parasite or virus in culture; format: cell-based; details: Escherichia coli, BLIs at fixed 4 μg/mL
[11] = test system: engineered E. coli strain expressing KPC-2^D179Y/T243M; assay: microbe, parasite or virus in culture; format: cell-based; details: Escherichia coli, BLIs at fixed 4 μg/mL
[12] = test system: engineered E. coli strain expressing KPC-3^D179Y; assay: microbe, parasite or virus in culture; format: cell-based; details: Escherichia coli, BLIs at fixed 4 μg/mL
[13] = test system: engineered E. coli strain expressing KPC-2^V240G; assay: microbe, parasite or virus in culture; format: cell-based; details: Escherichia coli, BLIs at fixed 4 μg/mL
[14] = test system: E. coli strains expressing KPC-2^D179Y or KPC-2^D179Y/T243M; assay: microbe, parasite or virus in culture; format: cell-based; details: Escherichia coli
[15] = test system: E. coli control strain lacking a β-lactamase; assay: microbe, parasite or virus in culture; format: cell-based; details: Escherichia coli, no KPC expressed, BLIs at fixed 4 μg/mL
[16] = test system: engineered E. coli strain expressing KPC-3^D179Y/T243M; assay: microbe, parasite or virus in culture; format: cell-based; details: Escherichia coli, BLIs at fixed 4 μg/mL
[17] = test system: engineered E. coli strain expressing KPC-3 wt; assay: microbe, parasite or virus in culture; format: cell-based; details: Escherichia coli; KPC-3 wt strain; BLIs at fixed 4 μg/mL
[18] = test system: engineered E. coli strain expressing KPC-2 wt; assay: microbe, parasite or virus in culture; format: cell-based; details: Escherichia coli; KPC-2 wt strain; BLIs at fixed 4 μg/mL
[19] = test system: engineered E. coli strain expressing KPC-2^D179Y; assay: microbe, parasite or virus in culture; format: cell-based; details: Escherichia coli, BLIs at fixed 4 μg/mL
KPC-2^D179Y/T243M [20] = target: T4, KPC-2^D179Y/T243M; assay: β-lactam hydrolysis kinetics, purified KPC-2 D179Y/T243M; format: biochemical; details: substrate hydrolysis by KPC-2 D179Y/T243M
Protocol: as §1
(§5) Assays to determine Michaelis-Menten kinetic parameters were performed by mixing variable amounts of enzymes (depending on the enzyme-substrate pair), with serial dilutions of different BL substrates and continuously monitoring the reduction in absorbance associated with BL hydrolysis ([28], [36], [40], [41]). Kinetic parameters were determined by plotting initial rates of hydrolysis (v) as a function of substrate concentration [S] and fitting the data to equation 1 using GraphPad Prism,
(§6) (1) v=[Et]×kcat×[S]/KM+[S]
(§7) where [Et] is the enzyme concentration, kcat the turnover number and KM the Michaelis constant.

KPC-3^D179Y [21] = target: T7, KPC-3^D179Y; assay: β-lactam hydrolysis kinetics, purified KPC-3 D179Y; format: biochemical; details: substrate hydrolysis by KPC-3 D179Y
Protocol: as §1, §5, §6, §7

KPC-3^D179Y/T243M [22] = target: T6, KPC-3^D179Y/T243M; assay: β-lactam hydrolysis kinetics, purified KPC-3 D179Y/T243M; format: biochemical; details: substrate hydrolysis by KPC-3 D179Y/T243M
Protocol: as §1, §5, §6, §7

KPC-3^V240G [23] = target: T2, KPC-3^V240G; format: biochemical
KPC-2^D179Y [24] = target: T5, KPC-2^D179Y; assay: β-lactam hydrolysis kinetics, purified KPC-2 D179Y; format: biochemical; details: substrate hydrolysis by KPC-2 D179Y
Protocol: as §1, §5, §6, §7

KPC-2^V240G [25] = target: T1, KPC-2^V240G; format: biochemical
KPC-2 WT [26] = target: T3, KPC-2 WT; details: substrate hydrolysis by KPC-2 WT
KPC-3 WT [27] = target: T8, KPC-3 WT; format: biochemical; details: substrate hydrolysis by KPC-3 WT
KPC-2 WT [28] = target: T3, KPC-2 WT; assay: biochemical; details: inhibition of CENTA hydrolysis, read-out: Apparent affinity Ki^app
KPC-3 WT [29] = target: T8, KPC-3 WT; assay: biochemical; details: inhibition of CENTA hydrolysis, read-out: Apparent affinity Ki^app
[30] = estimated from ratio koff / k2/K

NCCN[C@H]1CC[C@H](CC(=O)N[C@H]2Cc3cccc(C(=O)O)c3OB2O)CC1 [TAN, taniborbactam]
t1/2 (KPC-2^V240G [1]): 1.77 ± 0.0383 h | Kd (KPC-2^V240G [1]; [30]): 55 nM | k2/K (KPC-2^V240G [1]; inactivation efficiency): (0.2 ± 0.02) × 10^4 M^−1⋅s^−1 | koff (KPC-2^V240G [1]; jump dilution): (1.1 ± 0.03) × 10^−4 s^−1 | t1/2 (KPC-3^V240G [2]): 0.24 ± 0.012 h | Kd (KPC-3^V240G [2]; [30]): 18 nM | k2/K (KPC-3^V240G [2]; inactivation efficiency): (4.4 ± 0.9) × 10^4 M^−1⋅s^−1 | koff (KPC-3^V240G [2]; jump dilution): (8.0 ± 0.4) × 10^−4 s^−1 | t1/2 (KPC-2 WT [3]): 1.73 ± 0.0383 h | Kd (KPC-2 WT [3]; [30]): 11 nM | k2/K (KPC-2 WT [3]; inactivation efficiency, CENTA 100 µM): (0.9 ± 0.02) × 10^4 M^−1⋅s^−1 | koff (KPC-2 WT [3]; jump dilution): (1.0 ± 0.04) × 10^−4 s^−1 | t1/2 (KPC-2^D179Y/T243M [4]; KPC-2 D179Y/T243M): 3.705 ± 0.228 h | Kd (KPC-2^D179Y/T243M [4]; KPC-2 D179Y/T243M, estimated from ratio koff / k2/K): 3400 nM | koff (KPC-2^D179Y/T243M [4]; KPC-2 D179Y/T243M, jump dilution): (5.2 ± 0.3) × 10^−5 s^−1 | reduction in k2/K (KPC-2^D179Y/T243M [4]; KPC-2^D179Y/T243M relative to KPC-2 wt): ~600 fold | k2/K (KPC-2^D179Y/T243M [4]; inactivation efficiency, KPC-2 D179Y/T243M): 15.2 ± 0.1 M^−1⋅s^−1 | t1/2 (KPC-2^D179Y [5]; KPC-2 D179Y): 3.85 ± 0.323 h | Kd (KPC-2^D179Y [5]; KPC-2 D179Y, estimated from ratio koff / k2/K): 2900 nM | koff (KPC-2^D179Y [5]; KPC-2 D179Y, jump dilution): (5.0 ± 0.4) × 10^−5 s^−1 | reduction in k2/K (KPC-2^D179Y [5]; KPC-2^D179Y relative to KPC-2 wt): roughly 500 fold | k2/K (KPC-2^D179Y [5]; inactivation efficiency, KPC-2 D179Y): 17 ± 0.7 M^−1⋅s^−1 | t1/2 (KPC-3^D179Y/T243M [6]): 0.243 ± 0.083 h | Kd (KPC-3^D179Y/T243M [6]; [30]): 193 nM | k2/K (KPC-3^D179Y/T243M [6]; inactivation efficiency): (4.4 ± 0.7) × 10^3 M^−1⋅s^−1 | koff (KPC-3^D179Y/T243M [6]; jump dilution): (8.5 ± 2.5) × 10^−4 s^−1 | t1/2 (KPC-3^D179Y [7]): 0.238 ± 0.02 h | Kd (KPC-3^D179Y [7]; [30]): 290 nM | k2/K (KPC-3^D179Y [7]; inactivation efficiency): (2.8 ± 0.2) × 10^3 M^−1⋅s^−1 | koff (KPC-3^D179Y [7]; jump dilution): (8.1 ± 0.7) × 10^−4 s^−1 | t1/2 (KPC-3 WT [8]): 0.567 ± 0.067 h | Kd (KPC-3 WT [8]; [30]): 9 nM | k2/K (KPC-3 WT [8]; inactivation efficiency): (3.9 ± 0.4) × 10^4 M^−1⋅s^−1 | koff (KPC-3 WT [8]; jump dilution): (3.5 ± 0.4) × 10^−4 s^−1 | reduced inactivation efficiencies relative to KPC-3^wt [9]: 2–14 fold

CC(C)(O/N=C(\C(=O)N[C@@H]1C(=O)N2C(C(=O)[O-])=C(C[n+]3ccccc3)CS[C@H]12)c1csc(N)n1)C(=O)O [CAZ, ceftazidime]
MIC [10]: > 256 µg/mL | MIC [11]: > 256 µg/mL | MIC [12]: > 256 µg/mL | MIC [13]: > 256 µg/mL | MIC [14]: > 256 µg/mL | MIC [15]: 0.5 µg/mL (≈ 0.915 µM) | MIC [16]: > 256 µg/mL | MIC [17]: 256 µg/mL (≈ 468 µM) | MIC [18]: 64 µg/mL (≈ 117 µM) | MIC [19]: > 256 µg/mL

O=C(Cc1cccs1)N[C@@H]1C(=O)N2C(C(=O)O)=C(CSc3ccc([N+](=O)[O-])c(C(=O)O)c3)CS[C@H]12 [CENTA]
Km (KPC-2^D179Y/T243M [20]): 2.1 ± 0.3 µM | kcat (KPC-2^D179Y/T243M [20]): (0.9 ± 0.04) × 10^−2 s^−1 | Km (KPC-3^D179Y [21]): 124 ± 17 µM | kcat (KPC-3^D179Y [21]): 0.24 ± 0.02 s⁻¹ | Km (KPC-3^D179Y/T243M [22]): 153 ± 25 µM | kcat (KPC-3^D179Y/T243M [22]): 0.18 ± 0.02 s⁻¹ | Km (KPC-3^V240G [23]): 54.8 ± 8.3 µM | kcat (KPC-3^V240G [23]): 12.7 ± 1.1 s⁻¹ | Km (KPC-2^D179Y [24]): 1.9 ± 0.2 µM | kcat (KPC-2^D179Y [24]): (1.2 ± 0.08) × 10^−2 s^−1 | Km (KPC-2^V240G [25]): 63.3 ± 2.3 µM | kcat (KPC-2^V240G [25]): 662 ± 9.6 s⁻¹ | kcat (KPC-2 WT [26]): 243 ± 11 s⁻¹ | Km (KPC-2 WT [26]; PBS pH 7.4): 19.7 ± 1.3 µM | Km (KPC-3 WT [27]): 105 ± 24 µM | kcat (KPC-3 WT [27]): 38 ± 3.4 s⁻¹

Nc1nc(/C(=C/CC(=O)O)C(=O)N[C@@H]2C(=O)N3C(C(=O)O)=CCS[C@H]23)cs1 [CTB, ceftibuten]
MIC [10]: 32 µg/mL (≈ 78 µM) | MIC [11]: 16 µg/mL (≈ 39 µM) | MIC [12]: 32 µg/mL (≈ 78 µM) | Ki (KPC-2 WT [28]): 159000 ± 10000 nM | MIC [13]: 64 µg/mL (≈ 156 µM) | MIC [15]: 1 µg/mL (≈ 2.44 µM) | Ki (KPC-3 WT [29]): 368000 ± 26000 nM | MIC [16]: 16 µg/mL (≈ 39 µM) | MIC [17]: 32 µg/mL (≈ 78 µM) | MIC [18]: 16 µg/mL (≈ 39 µM) | MIC [19]: 16 µg/mL (≈ 39 µM)

Reference: publication PMC11881561 (Antimicrobial Agents and Chemotherapy, 2025)
